# Results: US8946381B2, “Compositions and uses thereof for the treatment of wounds” (Phylogica Limited, priority 2006, dated 2015)
# Entries after “also recorded” stand apart in the source; their conditions may differ.
# Legend:
# [1] = tested on: apoptosing epidermal cells surrounding the burn injury; assay: TUNEL assay on burn wound tissue sections; assay type: in vivo, C57/B16 mice; details: one day after burning
# Experimental: A full-thickness burn wound was generated in a murine subject using a modified protocol based on a model previously described (Bruen et al., J Surg Res, 120: 12-20, 2004). Briefly, mice (n=34) were anesthetised (xylazine (10 mg/kg) and ketamine (100 mg/kg)) and subsequently given a full-thickness 10 mm diameter burn by contact with a brass rod (65 g) heated to 95° C. and applied for 9 seconds. 10 control animals were sacrificed post-burn, and histology confirmed all burns were full-thickness. The remaining animals (n=24) were re-hydrated and given analgesics subcutaneously immediately post-burn. The wounds were then dressed using a Tegapore™ membrane dressing (3M Healthcare Ltd) and either phosphate buffered saline (PBS) or PBS containing 20 μM peptide were instilled into the Tegapore™ and administered topically. The mice were then wrapped with a secondary absorbent dressing with minimal pressure so as not to constrict breathing and to allow free movement of the animal after recovery. […]
# Tissue sections were labelled using TUNEL (Tdt-mediated dUTP Nick End Labelling) assay as previously described 13. […] Intensity of TUNEL staining was quantitated using Image J software (available from The National Institutes of Health, USA). Intensity of staining of individual nuclei were measured and normalised against the background. […]
# HaCaT keratinocytes = assay: MTT colorimetric proliferation assay, keratinocytes; assay type: cell-based; details: 100 nm, 1 μM or 10 μM, 24, 48 or 72 hours
# Experimental: (§1) Cultures of keratinocytes (HaCaT cells) or fibroblasts were cultured in a microwell plate the presence of a peptide analog comprising the amino acid sequence set forth in SEQ ID NO: 104 at a concentration of 100 nm, 1 μM or 10 μM. Following an incubation period 24 hours, 48 hours, or 72 hours, cells were incubated in the presence of MTT for a sufficient time for a mitochondrial dehydrogenase enzyme from viable cells to cleave the tetrazolium rings of the pale yellow MTT and form dark blue formazan crystals. Cells were then solubilized and the level of […] crystals determined using a microtitre plate reader at 492 nm.
# [2] = tested on: full-thickness burn wound; assay: full-thickness burn wound model in mice, gross morphology and re-epithelialisation; assay type: in vivo, C57/B16 mice
# Experimental: 8 week old C57/B16 mice were purchased from the Animal Resource Center, Murdoch University, Western Australia and used for all experiments. All experiments were approved by the necessary institutional animal ethics committees and were performed in accordance with the National Health and Medical Research Council (NHMRC) Australian Code of Practice for the Care and Use of Animals for Scientific Purposes.
# A full-thickness burn wound was generated in a murine subject using a modified protocol based on a model previously described (Bruen et al., J Surg Res, 120: 12-20, 2004). Briefly, mice (n=34) were anesthetised (xylazine (10 mg/kg) and ketamine (100 mg/kg)) and subsequently given a full-thickness 10 mm diameter burn by contact with a brass rod (65 g) heated to 95° C. and applied for 9 seconds. 10 control animals were sacrificed post-burn, and histology confirmed all burns were full-thickness. The remaining animals (n=24) were re-hydrated and given analgesics subcutaneously immediately post-burn. The wounds were then dressed using a Tegapore™ membrane dressing (3M Healthcare Ltd) and either phosphate buffered saline (PBS) or PBS containing 20 μM peptide were instilled into the Tegapore™ and administered topically. The mice were then wrapped with a secondary absorbent dressing with minimal pressure so as not to constrict breathing and to allow free movement of the animal after recovery. Ten minutes post-injury, dressings were removed and animals allowed to recover from anesthesia in their cages with feed and water provided ad libitum.
# Wounds were harvested on post-injury days 1, 3, 7 and 11 (n=3 for each time-point for both treated and control groups). Each wound was bisected along the cranial-caudal axis and one half of the tissue fixed in 4% paraformaldehyde solution and the other half stored as frozen tissue. Haematoxylin and Eosin stained sections were used to determine the quality of wound healing.
# Progress of re-epithelialisation was quantitated by measuring distance between leading epithelial edges using an eye-piece graticule on histological slides. Difference between treated and control wounds was analysed using standard two-tail t-TEST for two-samples assuming unequal variance. p<0.05 is defined as the level of statistical significance.
# fibroblast cells = assay: MTT colorimetric proliferation assay, fibroblasts; assay type: cell-based; details: 100 nm, 1 μM or 10 μM, 24, 48 or 72 hours
# Experimental: as §1
substance,measurement,setting,value
H-rerrsssqiGGsrisqyaGrrrqrrkkrG-NH2 [SEQ ID NO: 104],TUNEL staining intensity vs control,[1]; 500 μm from the wound edge,marked difference in intensity
same,TUNEL positive staining in epidermis,[1]; 1500 μm from the wound edge,complete lack of positive staining
same,cellular proliferation (MTT) vs untreated cells,HaCaT keratinocytes,increased cellular proliferation rates; also recorded: enhanced and/or induced proliferation
same,gross morphology of wound,[2]; day 7 post-burn,Early reepithelialization is present and separation of the eschar evident
same,gap without epidermis (not re-epithelialized),"[2]; day 7 post-burn, 20 μM peptide in PBS topical",2 mm
same,re-epithelialization of wound,"[2]; day 11 post-burn, 20 μM peptide in PBS topical",re-epithelialized by day 11; also recorded: all the treated wounds are covered; also recorded: completely re-epithelialized
same,eschar diameter,"[2]; day 11 post-burn, 20 μM peptide in PBS topically via Tegapore dressing for ten minutes",< 2 mm
same,scarring (de novo hair follicle morphogenesis),"[2]; day 11 post-burn, histology",scarring has not occurred
same,wound size between leading epidermal edges,"[2]; within 24 hours post-injury, 20 μM peptide in PBS topical",10 mm
same,cellular proliferation (MTT),fibroblast cells,did not stimulate proliferation
